# Assay results as given in ChEMBL document CHEMBL1135504, “Structure-activity relationships of the melanocortin tetrapeptide Ac-His-DPhe-Arg-Trp-NH(2) at the mouse melanocortin receptors: part 2 modifications at the Phe position” (J Med Chem, 2002).
# Where a SMILES comes first, the peptide text is derived from it.
# Assays:
# Melanocortin receptor 5 = Melanocortin receptor 5 (Mus musculus, UniProt P41149); assay: Agonist activity towards mouse Melanocortin-5 receptor (mMC5R); format: functional
# Sequence of Melanocortin receptor 5 (P41149 whole entry): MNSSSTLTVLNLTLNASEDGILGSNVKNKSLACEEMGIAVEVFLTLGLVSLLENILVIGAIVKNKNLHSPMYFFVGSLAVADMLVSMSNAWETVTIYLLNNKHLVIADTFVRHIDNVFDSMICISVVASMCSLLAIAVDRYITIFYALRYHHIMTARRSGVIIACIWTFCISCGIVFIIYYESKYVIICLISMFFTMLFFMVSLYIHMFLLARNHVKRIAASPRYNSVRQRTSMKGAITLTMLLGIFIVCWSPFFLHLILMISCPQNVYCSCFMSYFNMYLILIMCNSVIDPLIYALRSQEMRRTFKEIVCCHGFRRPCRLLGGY
# [1] = target: Melanocyte-stimulating hormone receptor (Mus musculus, UniProt Q01727); assay: Agonist activity to the mouse Melanocortin-1 receptor (mMC1R); format: functional
# Sequence of Melanocyte-stimulating hormone receptor (Q01727 whole entry): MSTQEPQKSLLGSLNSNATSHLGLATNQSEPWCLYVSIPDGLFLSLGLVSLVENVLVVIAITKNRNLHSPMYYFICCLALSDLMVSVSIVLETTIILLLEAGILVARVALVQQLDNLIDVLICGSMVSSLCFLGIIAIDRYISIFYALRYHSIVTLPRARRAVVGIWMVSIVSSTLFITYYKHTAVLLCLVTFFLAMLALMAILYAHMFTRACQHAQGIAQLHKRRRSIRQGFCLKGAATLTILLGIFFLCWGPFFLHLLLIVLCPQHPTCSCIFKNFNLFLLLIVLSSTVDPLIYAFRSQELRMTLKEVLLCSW
# Melanocortin receptor 3 [2] = target: T1, Melanocortin receptor 3 (Mus musculus, UniProt P33033); assay: Agonist activity to the mouse Melanocortin-3 receptor (mMC3R); format: functional
# T1 sequence (P33033 whole entry): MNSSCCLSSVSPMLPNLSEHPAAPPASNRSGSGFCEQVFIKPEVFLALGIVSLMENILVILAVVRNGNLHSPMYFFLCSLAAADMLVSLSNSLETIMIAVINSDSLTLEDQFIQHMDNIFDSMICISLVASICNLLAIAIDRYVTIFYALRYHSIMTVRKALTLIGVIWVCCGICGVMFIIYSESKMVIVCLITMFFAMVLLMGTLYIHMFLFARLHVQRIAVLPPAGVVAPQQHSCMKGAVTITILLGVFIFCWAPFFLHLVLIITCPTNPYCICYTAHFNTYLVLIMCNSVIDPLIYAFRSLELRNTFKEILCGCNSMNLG
# Melanocortin receptor 4 = Melanocortin receptor 4 (Mus musculus, UniProt P56450); assay: Agonist activity to the mouse Melanocortin-4 receptor (mMC4R); format: functional
# Sequence of Melanocortin receptor 4 (P56450 whole entry): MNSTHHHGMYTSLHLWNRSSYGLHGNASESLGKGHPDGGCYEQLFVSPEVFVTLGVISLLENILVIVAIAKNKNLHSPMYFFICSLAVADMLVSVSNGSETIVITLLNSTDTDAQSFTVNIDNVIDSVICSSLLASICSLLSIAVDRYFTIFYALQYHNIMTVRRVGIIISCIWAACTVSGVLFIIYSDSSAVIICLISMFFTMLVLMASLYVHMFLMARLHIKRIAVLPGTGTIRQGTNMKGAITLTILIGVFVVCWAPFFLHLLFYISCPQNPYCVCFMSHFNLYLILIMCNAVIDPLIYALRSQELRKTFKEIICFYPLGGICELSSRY
# Melanocortin receptor 3 [3] = target: T1, Melanocortin receptor 3; assay: Agonist activity of compound towards mouse Melanocortin-3 receptor (mMC3R); partial agonist; format: functional; settings: read-out: pA2 (converted)
# Melanocortin receptor 3 [4] = target: T1, Melanocortin receptor 3; assay: Binding constant (Ki) at mouse Melanocortin-3 receptor
Structure (SMILES),EC50 (Melanocortin receptor 5) [µM],EC50 [1] [µM],EC50 (Melanocortin receptor 3 [2]) [µM],EC50 (Melanocortin receptor 4) [µM],Kb (Melanocortin receptor 3 [3]) [µM],Ki (Melanocortin receptor 3 [4]) [µM]
CC(=O)N[C@@H](Cc1cnc[nH]1)C(=O)N[C@@H](Cc1ccc(-c2ccccc2)cc1)C(=O)N[C@@H](CCCNC(=N)N)C(=O)N[C@@H](Cc1c[nH]c2ccccc12)C(N)=O,5.5,10.6,> 100,,,
CC(=O)N[C@@H](Cc1cnc[nH]1)C(=O)N[C@H](CCc1ccccc1)C(=O)N[C@@H](CCCNC(=N)N)C(=O)N[C@@H](Cc1c[nH]c2ccccc12)C(N)=O,2.8,6.25,> 100,11.1,,
CC(=O)N[C@@H](Cc1cnc[nH]1)C(=O)N[C@H](C(=O)N[C@@H](CCCNC(=N)N)C(=O)N[C@@H](Cc1c[nH]c2ccccc12)C(N)=O)C(c1ccccc1)c1ccccc1,> 100,19,> 100,> 100,,
CC(=O)N[C@@H](Cc1c[nH]cn1)C(=O)N1Cc2ccccc2C[C@H]1C(=O)N[C@@H](CCCN=C(N)N)C(=O)N[C@@H](Cc1c[nH]c2ccccc12)C(N)=O,21.3,53.6,> 100,> 100,,
CC(=O)N[C@@H](Cc1c[nH]cn1)C(=O)N[C@@H](Cc1ccccc1)C(=O)N[C@@H](CCCN=C(N)N)C(=O)N[C@@H](Cc1c[nH]c2ccccc12)C(N)=O,,,,0.00211,,
CC(=O)N[C@@H](Cc1cnc[nH]1)C(=O)N[C@H](C(=O)N[C@@H](CCCNC(=N)N)C(=O)N[C@@H](Cc1c[nH]c2ccccc12)C(N)=O)c1ccccc1,4,14.7,44,40.5,,
CC(=O)N[C@@H](Cc1cnc[nH]1)C(=O)N[C@H](Cc1ccc2ccccc2c1)C(=O)N[C@@H](CCCNC(=N)N)C(=O)N[C@@H](Cc1c[nH]c2ccccc12)C(N)=O,0.0347,0.167,,,0.295,0.295
CC(=O)N[C@@H](Cc1cnc[nH]1)C(=O)N[C@@H](Cc1cccc2ccccc12)C(=O)N[C@@H](CCCNC(=N)N)C(=O)N[C@@H](Cc1c[nH]c2ccccc12)C(N)=O,11.2,15.2,> 100,> 100,,
CC(=O)N[C@@H](Cc1c[nH]cn1)C(=O)N[C@H](Cc1c[nH]c2ccccc12)C(=O)N[C@@H](CCCN=C(N)N)C(=O)N[C@@H](Cc1c[nH]c2ccccc12)C(N)=O,6.95,25.1,> 100,> 100,,
CC(=O)N[C@@H](Cc1cnc[nH]1)C(=O)N[C@@H](C)C(=O)N[C@@H](CCCNC(=N)N)C(=O)N[C@@H](Cc1c[nH]c2ccccc12)C(N)=O (Ac-HARW-NH2),> 100,30,> 100,> 100,,
CC(=O)N[C@@H](Cc1c[nH]cn1)C(=O)N[C@@H](CCc1ccccc1)C(=O)N[C@@H](CCCN=C(N)N)C(=O)N[C@@H](Cc1c[nH]c2ccccc12)C(N)=O,11.8,33.1,> 100,> 100,,
CC(=O)N[C@@H](Cc1c[nH]cn1)C(=O)N[C@H](Cc1ccc(-c2ccccc2)cc1)C(=O)N[C@@H](CCCN=C(N)N)C(=O)N[C@@H](Cc1c[nH]c2ccccc12)C(N)=O,0.0116,0.0284,2.05,0.0684,,
CC(=O)N[C@@H](Cc1c[nH]cn1)C(=O)N[C@@H](Cc1ccc2ccccc2c1)C(=O)N[C@@H](CCCN=C(N)N)C(=O)N[C@@H](Cc1c[nH]c2ccccc12)C(N)=O,7.4,22,> 100,,,
CC(=O)N[C@@H](Cc1cnc[nH]1)C(=O)N[C@@H](Cc1c[nH]c2ccccc12)C(=O)N[C@@H](CCCNC(=N)N)C(=O)N[C@@H](Cc1c[nH]c2ccccc12)C(N)=O,18.4,33.4,> 100,34.3,,
CC(=O)N[C@@H](Cc1c[nH]cn1)C(=O)N[C@@H](C(=O)N[C@@H](CCCN=C(N)N)C(=O)N[C@@H](Cc1c[nH]c2ccccc12)C(N)=O)c1ccccc1,,16.9,> 100,> 100,,
CC(=O)N[C@@H](Cc1c[nH]cn1)C(=O)NC1(C(=O)N[C@@H](CCCN=C(N)N)C(=O)N[C@@H](Cc2c[nH]c3ccccc23)C(N)=O)CCc2ccccc2C1 (stereo in doubt; 26),2.07,5.8,7.8,7.13,,
CC(=O)N[C@@H](Cc1c[nH]cn1)C(=O)N1Cc2ccccc2C[C@@H]1C(=O)N[C@@H](CCCN=C(N)N)C(=O)N[C@@H](Cc1c[nH]c2ccccc12)C(N)=O,> 100,40.8,> 100,> 100,,
CC(=O)N[C@@H](Cc1cnc[nH]1)C(=O)N[C@@H](Cc1ccc(O)cc1)C(=O)N[C@@H](CCCNC(=N)N)C(=O)N[C@@H](Cc1c[nH]c2ccccc12)C(N)=O (Ac-HYRW-NH2),32.7,61.4,> 100,> 100,,
CC(=O)N[C@@H](Cc1c[nH]cn1)C(=O)NC1(C(=O)N[C@@H](CCCN=C(N)N)C(=O)N[C@@H](Cc2c[nH]c3ccccc23)C(N)=O)CCc2ccccc2C1 (stereo in doubt; 25),0.263,2.35,9.9,1.78,,
CC(=O)N[C@@H](Cc1cnc[nH]1)C(=O)N[C@H](Cc1cccc2ccccc12)C(=O)N[C@@H](CCCNC(=N)N)C(=O)N[C@@H](Cc1c[nH]c2ccccc12)C(N)=O,0.0514,0.356,4.1,0.303,,
CC(=O)N[C@@H](Cc1cnc[nH]1)C(=O)N[C@@H](Cc1cccnc1)C(=O)N[C@@H](CCCNC(=N)N)C(=O)N[C@@H](Cc1c[nH]c2ccccc12)C(N)=O,36.1,22.9,> 100,> 100,,
CC(=O)N[C@@H](Cc1c[nH]cn1)C(=O)N[C@@H](Cc1c[nH]cn1)C(=O)N[C@@H](CCCN=C(N)N)C(=O)N[C@@H](Cc1c[nH]c2ccccc12)C(N)=O (Ac-HHRW-NH2),41.2,41.7,> 100,> 100,,
CC(=O)N[C@@H](Cc1cnc[nH]1)C(=O)N[C@H](Cc1ccc(O)cc1)C(=O)N[C@@H](CCCNC(=N)N)C(=O)N[C@@H](Cc1c[nH]c2ccccc12)C(N)=O,0.631,3.2,34,2.4,,
CC(=O)N[C@@H](Cc1cnc[nH]1)C(=O)N[C@@H](Cc1ccncc1)C(=O)N[C@@H](CCCNC(=N)N)C(=O)N[C@@H](Cc1c[nH]c2ccccc12)C(N)=O,9.7,36.7,> 100,24.4,,
CC(=O)N[C@@H](Cc1c[nH]cn1)C(=O)N[C@@H](C(=O)N[C@@H](CCCN=C(N)N)C(=O)N[C@@H](Cc1c[nH]c2ccccc12)C(N)=O)C(c1ccccc1)c1ccccc1,4.3,1.5,> 100,5,,
